{"source": "paper PMC9569529", "about": "“Safe and Efficient Sigma1 Ligand: A Potential Drug Candidate for Multiple Sclerosis” (International Journal of Molecular Sciences, 2022)", "test_system": "human peripheral blood mononuclear cells (hPBMCs)", "assay": "Immunotoxicity, immunophenotyping by flow cytometry", "format": "cell-based", "details": "10 µM, 48 h", "procedure": "Immunotoxicity analysis was performed by Immune Insight CRO (Lille, France) on human peripheral blood mononuclear cells (hPBMCs) from six individual healthy donors. hPBMCs were either non-stimulated (basal) or stimulated using E. coli lipopolysaccharide (LPS, Sigma Aldrich, St. Louis, MO, USA) at 100 ng/mL. hPBMCs were activated with plate-bound anti-CD3 (10 ng/mL) monoclonal antibody (mAb) and incubated at 37 °C for 2 h before the culture and soluble anti-CD28 (10 ng/mL) mAb (Clinisciences, Montrouge, France) were added. Compound 7i was tested at 10 µM. The quality of hPBMC activation was controlled using cytometric analysis based on CD25 staining and proliferation assays based on ^3H-thymidine incorporation. Immune cell subpopulations were immunophenotyped among hPBMCs by flow cytometry on an Attune NxT (Thermofisher Scientific Inc. Waltham, MA, USA). Analyses were performed at 48 h post treatment. The expression of B, CD4, CD8, Th17 and Treg lymphocyte surface antigens was tested using monoclonal mouse anti-human Ab (Miltenyi Biotec SAS, Paris, France) (Table 9). […]", "data": [{"compound": "CN(CCCNC(=O)c1ccc(Cl)cc1)Cc1ccccc1", "note": "[compound 7i]", "values": [{"measurement": "effect on percentage of B, Th17, CD4 and CD8 T lymphocyte subpopulations and regulatory T cells", "setting": "basal non-stimulating conditions", "result": "no effect"}, {"measurement": "toxicity on immune subpopulations", "setting": "stimulating or not stimulating conditions", "result": "no toxicity effect"}]}]}
